In paper PMC3102611, “The inhibition of the mammalian DNA methyltransferase 3a (Dnmt3a) by dietary black tea and coffee polyphenols” (2011):

Target: T1, Dnmt3a (Mus musculus, UniProt O88508)
T1 construct: C-terminal catalytic domain (Dnmt3a-C)
Experiment: Biotin-avidin DNA methylation kinetics assay with [methyl-3H]AdoMet, purified Dnmt3a-C
Type: biochemical

T1 sequence (O88508 608-908 limits assumed): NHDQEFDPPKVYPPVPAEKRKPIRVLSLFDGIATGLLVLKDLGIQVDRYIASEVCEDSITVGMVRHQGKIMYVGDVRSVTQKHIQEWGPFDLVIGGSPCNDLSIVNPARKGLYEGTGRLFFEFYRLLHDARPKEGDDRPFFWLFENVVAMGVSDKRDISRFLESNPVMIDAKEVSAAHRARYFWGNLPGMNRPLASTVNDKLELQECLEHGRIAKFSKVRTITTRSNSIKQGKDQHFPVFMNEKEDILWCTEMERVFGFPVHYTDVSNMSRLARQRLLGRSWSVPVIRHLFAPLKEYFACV

IC50: 35 µM
Compound: COC(=O)[C@]1(OC(=O)/C=C/c2ccc(O)c(O)c2)C[C@H](OC(=O)/C=C/c2ccc(O)c(O)c2)[C@H]2O[C@@](C)(OC)[C@](C)(OC)O[C@@H]2C1 [N12, 1,3-dicaffeoyl-muco-quinic acid diacetal]
